Measured values as given in the Deep4Chem optical property database.
“And” between values parts separate entries of the source, which are not always exact repeats. Identical values can stand only once. One block for each compound: values may come before it.

Assay: solvent given as SMILES

SMILES: O=C(O)CCCOc1cc2ccc3cccc4ccc(c1)c2c34
emission maximum (in CO): 382 nm

SMILES: CCC1=C(C)C2=C(C)c3cc(I)c(I)n3[B-](F)(F)[N+]2=C1C
emission maximum (in C1CCCCC1): 546 nm
emission maximum (in CC(C)=O): 544.5 nm
emission maximum (in CCO): 548 nm
emission maximum (in CCOC(C)=O): 544.5 nm
emission maximum (in CO): 546 nm
emission maximum (in OCC(F)(F)F): 542.5 nm

SMILES: Cc1cc(C#Cc2ccccc2)c2ccc3c(C#Cc4ccccc4)cc(C#Cc4ccccc4)c4ccc1c2c43
emission maximum (in CS(C)=O): 461 nm
emission maximum (in ClC(Cl)(Cl)Cl): 460 nm

SMILES: O=C1c2ccccc2C2=Cc3cccc[n+]3[B-](F)(F)N12
emission maximum (in CCO): 449 nm
emission maximum (in Cc1ccccc1): 459 nm
emission maximum (in ClCCl): 454 nm

SMILES: CCN(CC)c1ccc2c(c1)oc(=O)c1c(=O)oc3c(OC)cccc3c12
emission maximum (in CS(C)=O): 572 nm
emission maximum (in ClCCl): 530 nm

SMILES: CCCCN1C(=O)c2cccc3cccc(c23)C1=O
emission maximum (in Cc1ccccc1): 392 nm

SMILES: CN(C)c1ccc(/C=C2\CC/C(=C\c3ccc(C#N)cc3)C2=O)cc1
emission maximum (in C1CCOC1): 651 nm
emission maximum (in CC#N): 721 nm
emission maximum (in CC(C)=O): 718 nm
emission maximum (in CC(C)O): 647 nm
emission maximum (in CCCCO): 648 nm
emission maximum (in CCCCOC(C)=O): 631 nm
emission maximum (in CCCO): 644 nm
emission maximum (in CCO): 659 nm
emission maximum (in CCOC(=O)c1ccccc1): 641 nm
emission maximum (in CCOC(C)=O): 643 nm
emission maximum (in CCOCC): 580 nm
emission maximum (in CN(C)C=O): 740 nm
emission maximum (in CO): 693 nm
emission maximum (in CS(C)=O): 731 nm
emission maximum (in Cc1ccccc1): 558 nm
emission maximum (in ClC(Cl)(Cl)Cl): 513 nm
emission maximum (in ClC(Cl)Cl): 603 nm
emission maximum (in ClCCl): 643 nm
emission maximum (in Clc1ccccc1Cl): 625 nm
emission maximum (in O=C1CCCC1): 678 nm
emission maximum (in S=C=S): 535 nm
emission maximum (in c1ccccc1): 569 nm
emission maximum (in c1ccncc1): 673 nm

SMILES: CCCCC(CC)CN1C(=O)c2cc(Oc3ccc(OC)cc3)c3c4c(Cl)cc5c6c(cc(Cl)c(c7c(Oc8ccc(OC)cc8)cc(c2c37)C1=O)c64)C(=O)N(c1c(C(C)C)cccc1C(C)C)C5=O (stereo not drawn)
emission maximum (in Cc1ccccc1): 614 nm

SMILES: OC1(c2ccc(-c3cccs3)s2)CCC(c2ccccc2)CC1 (stereo not drawn)
emission maximum (in C1CCOC1): 471 nm
emission maximum (in CC#N): 468 nm
emission maximum (in CCCCCC): 464 nm
emission maximum (in CCO): 460 nm
emission maximum (in OCCOCCO): 384 nm
emission maximum (in c1ccncc1): 385 nm

SMILES: COc1ccc(C2=CC(c3ccccc3)=[N+]3C2=Nc2c(-c4ccc(OC)cc4)cc(-c4ccccc4)n2[B-]3(F)F)cc1
emission maximum (in Cc1ccccc1): 697 nm
emission maximum (in ClC(Cl)Cl): 695 nm

SMILES: Cc1ccc2c(c1)c1cc(C)ccc1n2-c1cccc(-n2c3ccc(C)cc3c3cc(C)ccc32)c1C#N
emission maximum (in Cc1ccccc1): 417 nm
emission maximum (in O=P(c1ccccc1)(c1ccccc1)c1ccccc1Oc1ccccc1P(=O)(c1ccccc1)c1ccccc1): 432 nm

SMILES: O=C1OC(=O)C2=C1[Se][C@]13C2=C[C@H](c2ccccc21)c1ccccc13
emission maximum (in ClCCl): 517 nm

SMILES: N#Cc1cc(C#N)c(-c2ccc(N(c3ccccc3)c3ccccc3)cc2)cc1-c1ccc(N(c2ccccc2)c2ccccc2)cc1
emission maximum (in Cc1ccccc1): 477 nm

SMILES: Fc1c(F)c(-n2c3ccccc3c3ccccc32)c(F)c(-n2c3ccccc3c3ccccc32)c1-c1nnc(-c2ccccc2)o1
emission maximum (in Cc1ccccc1): 449 nm

SMILES: Cc1ccc2c(c1)nc1c(=O)n(C)c(=O)nc-1n2C
emission maximum (in CC#N): 532 nm

SMILES: c1ccc(-c2ccc(-c3cn4ccc[n+]4[n-]3)cc2)cc1
emission maximum (in ClCCl): 456 nm

SMILES: c1ccc(B2Nc3cc4c(cc3-c3sc5ccccc5c32)NB(c2ccccc2)c2c-4sc3ccccc23)cc1
emission maximum (in ClCCl): 418 nm

SMILES: CC1(C)c2ccccc2N(c2ccc3c(c2)C2(c4cc(N5c6ccccc6C(C)(C)c6ccccc65)ccc4-3)c3ccccc3S(=O)(=O)c3ccccc32)c2ccccc21
emission maximum (in Cc1ccccc1): 437 nm

SMILES: CB1C=Cc2ccc3ccccc3c2N1c1ccccc1
emission maximum (in C1CCCCC1): 387 nm

SMILES: CCCCCCCCn1c2cc(/C=C/c3ccc(N(c4ccccc4)c4ccccc4)cc3)ccc2c2cc3c(cc21)c1ccc(/C=C/c2ccc(N(c4ccccc4)c4ccccc4)cc2)cc1n3CCCCCCCC
emission maximum (in Cc1ccccc1): 473 nm

SMILES: COc1ccc(/C=C/c2nc(/C=C/c3ccc(N(c4ccccc4)c4ccccc4)cc3)cc(/C=C/c3ccc(N(c4ccccc4)c4ccccc4)cc3)n2)cc1
emission maximum (in C1CCOC1): 515 nm
emission maximum (in CC#N): 583 nm
emission maximum (in CC(C)=O): 555 nm
emission maximum (in CCCCCCC): 461 nm
emission maximum (in CS(C)=O): 584 nm
emission maximum (in Cc1ccccc1): 480 nm
emission maximum (in ClCCl): 543 nm

SMILES: Cc1cc(C)c(C)c(B(c2c(C)c(C)c(N3c4ccccc4Oc4ccccc43)c(C)c2C)c2c(C)c(C)c(N3c4ccccc4Oc4ccccc43)c(C)c2C)c1C
emission maximum (in CC(C)(C)c1ccc(-n2c3ccc([Si](c4ccccc4)(c4ccccc4)c4ccccc4)cc3c3cc([Si](c4ccccc4)(c4ccccc4)c4ccccc4)ccc32)cc1): 484 nm

SMILES: c1ccc(-c2c3ccccc3nc3cc4ccccc4cc23)cc1
emission maximum (in ClCCl): 525 nm

SMILES: CC(=O)Nc1ccc(S(=O)(=O)O)c(/N=N/c2c(O)c3ccccc3n(C)c2=O)c1
emission maximum (in C1CCOC1): 523 nm
emission maximum (in CC(C)=O): 516 nm
emission maximum (in CCOC(C)=O): 523 nm
emission maximum (in CO): 512 nm
emission maximum (in CS(C)=O): 526 nm
emission maximum (in Cc1ccccc1): 517 nm
emission maximum (in ClCCl): 528 nm
emission maximum (in O): 549 nm

SMILES: CCn1c2ccsc2c2c3nsnc3c3c4sccc4n(CC)c3c21
emission maximum (in C1CCOC1): 539 nm
emission maximum (in CCOC(C)=O): 538 nm
emission maximum (in CN(C)C=O): 573 nm
emission maximum (in Cc1ccccc1): 523 nm
emission maximum (in ClCCl): 565 nm

SMILES: COC(=O)c1cc(=O)n(C)c2cc(-c3cc(OC)c(OC)c(OC)c3)sc12
emission maximum (in CC#N): 495 nm
emission maximum (in ClCCl): 485 nm

Continued, values first:

emission maximum (in CCOC(C)=O): 428 nm
SMILES: CCCCCCCCCCCCOc1ccc(C#CC(C#Cc2ccc(OCCCCCCCCCCCC)cc2)=Cc2cc(C=C(C#Cc3ccc(OCCCCCCCCCCCC)cc3)C#Cc3ccc(OCCCCCCCCCCCC)cc3)cc(C=C(C#Cc3ccc(OCCCCCCCCCCCC)cc3)C#Cc3ccc(OCCCCCCCCCCCC)cc3)c2)cc1

emission maximum (in C1CCCCC1): 415 nm
emission maximum (in CC#N): 521 nm
emission maximum (in CC(C)O): 518 nm
emission maximum (in CO): 543 nm
emission maximum (in CS(C)=O): 534 nm
emission maximum (in ClC(Cl)Cl): 472 nm
emission maximum (in c1ccccc1): 457 nm
SMILES: CN(C)C(=O)c1ccc(-c2nc3ccc(N(C)C)cc3s2)cc1

emission maximum (in CS(C)=O): 632 nm
SMILES: O=C(O)CCCOc1cccc(-c2c3nc(cc4ccc([nH]4)c(-c4cccc(OCCCC(=O)O)c4)c4nc(cc5ccc2[nH]5)C=C4)C=C3)c1

emission maximum (in C1COCCO1): 471 nm
emission maximum (in CC#N): 475 nm
emission maximum (in CCO): 477 nm
emission maximum (in CCOC(C)=O): 472 nm
emission maximum (in O): 477 nm
SMILES: CN1C(=O)/C(=C/c2ccncc2)N=C1c1ccccc1

emission maximum (in ClC(Cl)Cl): 731 nm
SMILES: Cc1ccc(/C2=c3\cc/c(o3)=C(\c3ccc(C)cc3)c3ccc([nH]3)-c3ccc4n3[B-](F)(F)[N+]3=C(C=CC3=C4c3ccco3)c3ccc2[nH]3)cc1

emission maximum (in CC1CCCCC1): 329 nm
emission maximum (in CC#N): 333 nm
emission maximum (in CO): 353 nm
SMILES: C=CCOc1ccc(-c2nc3cc(C(NC(=O)OC(C)(C)C)C(=O)OC)ccc3o2)cc1 (stereo not drawn)

emission maximum (in ClC(Cl)Cl): 419 nm
SMILES: CC(C)(C)c1cccc2c1oc1nc3oc4ccc(-n5c6ccccc6c6ccccc65)cc4c3cc12

emission maximum (in CC#N): 500 nm
emission maximum (in ClCCl): 490 nm
SMILES: COc1cccc(/C=C/C(=O)c2c(O)cc(C)oc2=O)c1

emission maximum (in ClCCl): 552 nm
SMILES: COC(=O)C1CCN(c2ccc3c(N4CCCCC4)c4ccc(=[N+]5CCC(C(=O)OC)CC5)cc-4oc3c2)CC1 (stereo not drawn)

emission maximum (in C1CCCCC1): 596 nm
SMILES: CCc1c(C)c2n(c1C)[B-](F)(F)[N+]1=C(C=C3C=Cc4ccccc43)C=CC1=C2C

emission maximum (in ClCCl): 359 nm
SMILES: FC(F)(F)c1ccc(-c2ccc(-c3cc(-c4ccccn4)nc(-c4ccccn4)c3)cc2)cc1

emission maximum (in C1CCCCC1): 344 nm
SMILES: COC(=O)c1noc(-c2ccccc2)c1Cl

emission maximum (in C1CCCCC1): 437 nm
emission maximum (in CC#N): 530 nm
emission maximum (in CO): 514 nm
emission maximum (in ClC(Cl)Cl): 500 nm
SMILES: CN(C)c1ccc(/C=C/c2ccc(-c3nc(C#N)c(C#N)n3C)cc2)cc1

emission maximum (in C1CCOC1): 367 nm
SMILES: CC(C)(C)c1ccc(-c2c(-c3ccc(-n4c5ccccc5c5ccccc54)cc3)cc(-c3ccc(-n4c5ccccc5c5ccccc54)cc3)c(-c3ccc(C(C)(C)C)cc3)c2-c2ccc(C(C)(C)C)cc2)cc1

emission maximum (in C1COCCO1): 366 nm
emission maximum (in CC#N): 373 nm
emission maximum (in CCCCCC): 365 nm
emission maximum (in CCCCO): 370 nm
emission maximum (in CCO): 369 nm
emission maximum (in CCOC(C)=O): 370 nm
emission maximum (in CO): 368 nm
emission maximum (in ClC(Cl)Cl): 366 nm
emission maximum (in ClCCl): 364 nm
emission maximum (in c1ccccc1): 372 nm
SMILES: COc1cccc(-n2c(-c3ccccc3)nc(C)c2C)c1

emission maximum (in CCO): 464 nm
emission maximum (in ClC(Cl)Cl): 453 nm
SMILES: COc1ccc2c(-c3nc(-c4ccccc4F)no3)cc(=O)oc2c1

emission maximum (in CN(C)C=O): 618 nm
emission maximum (in ClC(Cl)Cl): 609 nm
SMILES: O=C1C2=C3c4sccc4C=CN3C(=O)C2=C2c3sccc3C=CN12

emission maximum (in c1cc(-c2cccc(-n3c4ccccc4c4ccccc43)c2)cc(-n2c3ccccc3c3ccccc32)c1): 485 nm
emission maximum (in c1ccc2c(c1)c1ccccc1n2-c1ccc2sc3ccc(-n4c5ccccc5c5ccccc54)cc3c2c1): 489 nm
emission maximum (in c1ccc2c(c1)c1ccccc1n2-c1ccc2sc3ccc(-n4c5ccccc5c5cccnc54)cc3c2c1): 495 nm
emission maximum (in c1ccc2c(c1)c1cccnc1n2-c1ccc2sc3ccc(-n4c5ccccc5c5cccnc54)cc3c2c1): 498 nm
SMILES: Cc1cc(-n2c3ccccc3c3ccccc32)c(-n2c3ccccc3c3ccccc32)cc1C#N

emission maximum (in ClCCl): 529 nm
SMILES: O=c1oc2ccccc2c2c1c(=O)oc1cc(O)c3ccccc3c12

emission maximum (in CC#N): 440 nm and 417 nm
SMILES: Cn1c(-c2ccc(-c3nc(-c4ccccc4)c(-c4ccccc4)n3C)cc2)nc(-c2ccccc2)c1-c1ccccc1

emission maximum (in C1COCCO1): 714 nm
SMILES: CCCCOc1ccc(/C=C/C2=[N+]3C(=C(c4ccc(I)cc4)c4c(/C=C/c5ccc(N(C)C)cc5)cc(/C=C/c5ccc(OC)cc5)n4[B-]3(F)F)C(/C=C/c3ccc(OCCOCCOC)cc3)=C2)cc1
